Assay results: patent US20240376517A1 (THE UNIVERSITY COURT OF THE UNIVERSITY OF EDINBURCH, priority 2021, published 2024)
*1 amine or outer side, *2 acyl side, *3 side chain or, on linkers, in order; H or OH if unused. Where a SMILES comes first, the peptide text is derived from it. Where no end group is shown, it is not given here. [ ]: non-standard residue; d: D form. The star is where a group is joined. ξ: configuration not given here. BODIPY(FL) = CC1=CC(C)=[N+]2C1=Cc1ccc(CCC(=O)*)n1[B-]2(F)F; X1 = CN(C)c1ccc(/N=N/c2ccc(C(=O)*)cc2)cc1; Ethylenediamine = C(CN[*:2])N[*:1]; Ile(3ξ) = CCC(C)[C@H](N)C(=O)O; AMC = Cc1cc(=O)oc2cc(N*)ccc12

Columns and labels:
[1] = system: co-cultures of E0771 cells and IL-2-activated CD8+ T cells; assay: Drug screening, image-based phenotypic screen with H5; assay type: cell-based, mouse; conditions: drug at working concentration plus IL-2 100 U mL^−1, 3 h
Method: Drug screening. E0771 (750 cells/well) and freshly isolated murine CD8+ T cells (6,000 cells/well) were plated in 384-well plates as described above. […] H5 (20 μM) and Hoechst 33342 (1 μM) was added for 1 h at 37° C., washed with PBS and imaged under ImageXpress™ XLS (Molecular Devices) using KRB (10% FBS) buffer as media. Fluorescent images (4 sites/well) were acquired under a 40× objective using 405 nm (Hoechst) and 488 nm (H5) excitation wavelengths and data was analysed with MetaXpress software using the Custom Module Editor. Briefly, nuclei were used as seeds to create a pseudo-cell area and granzyme B positive puncta were detected using a top-hat filter (pixel size: 10, circle shape) followed by an average filter (3×3 pixel).

[2] = system: recombinant hGzmB (20 nM); assay: buffer-1 (50 mM Tris, 100 mM NaCl, pH 7.4); conditions: human, 37° C., up to 2 h
[3] = system: hGzmB (100 nM); conditions: human, up to 24 h
[4] = target: T1, hGzmB (Homo sapiens, UniProt P10144); assay: Fluorescence assays with recombinant hGzmB; assay type: biochemical
T1 sequence (P10144 21-247): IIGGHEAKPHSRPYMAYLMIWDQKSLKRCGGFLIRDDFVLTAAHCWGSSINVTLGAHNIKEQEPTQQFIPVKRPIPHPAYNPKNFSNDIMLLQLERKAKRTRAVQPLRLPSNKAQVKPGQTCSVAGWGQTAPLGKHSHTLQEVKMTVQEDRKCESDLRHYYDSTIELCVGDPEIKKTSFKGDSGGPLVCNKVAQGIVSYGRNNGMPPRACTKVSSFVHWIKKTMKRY
Method: Fluorescence assays with recombinant enzymes. Fluorescence-based assays with enzymes were performed in buffer-1 (50 mM Tris, 100 mM NaCl, pH 7.4) for GzmB, pro-GzmB, GzmA and HNE, or buffer-2 (25 mM HEPES, 0.1% CHAPS, 10 mM DTT, pH 7.5) for caspases and other enzymes. Probes (25 μM) were added to enzymes (20 nM or at the indicated concentrations) in 384-well plates and their fluorescence emission was recorded at 450 nm (for AMC) or 510 nm (for BODIPY) at 37° C. using a Synergy H1 Hybrid reader (BioTek). In experiments with Ac-IEPD-CHO (50 μM), the inhibitor was pre-incubated for 1 h with GzmB before addition of any probe.

[5] = target: T1, hGzmB; assay: HPLC conversion/cleavage of probes by hGzmB; assay type: biochemical; conditions: for cleavage at 100 nM for 24 h: 100 nM enzyme
Text: FIG. 5. HPLC traces of the probe H5 before and after reaction with hGzmB. HPLC chromatogram and mass spectrometry analysis of the probe H5 before and after reaction with increasing concentrations of hGzmB. Mcalc. (intact probe): 1246.6 [M+Na^+]; Mcalc. (cleaved probe): 747.2 [M+H^+].

[6] = system: GzmB; conditions: cited from earlier work
[7] = target: T2, human recombinant granzyme B (Homo sapiens, UniProt P10144); assay: Reactivity of NIR probes with granzyme B; assay type: biochemical
T2 sequence (P10144 21-247): as above
Method: With the probes in hand (Table 4) they were tested for their reactivity with human recombinant granzyme B to identify a lead candidate. Each probe was tested at a concentration of 25 μM against 20 nM granzyme B and fluorescence was recorded over 2 hours at 37° C. (λex: 620 nm, λem: 660 nm).

[8] = system: human recombinant granzyme B (15 nM); assay: urine from 3 healthy donors with spiked granzyme B (15 nM); conditions: 37° C., up to 3 hours
[9] = urine from 3 healthy donors, without granzyme B; conditions: human, 37° C., up to 3 hours
[10] = assay type: in vitro ADME, human
Method: (§1) Probe (H5 or R7) (25 μM) was incubated with human recombinant granzyme B (15 nM) in Granzyme B buffer for 1.5 h at 37° C. Following incubation, the samples were diluted with MeOH, centrifuged and the supernatant injected into the HPLC/MS. Samples were eluted with 0.1% HCOOH in H2O (A) and 0.1% HCOOH in MBCN (B), with a gradient of 0 to 100% B over 5 minutes and an additional isocratic period of 3 minutes with a flow rate of 1.5 mL min^−1. Reactions were monitored from 220-700 nm and percentage cleaved was determined by comparing peak area of the cleaved probe against the intact probe on MassLynx software.
We first sought to address the stability of probe H5 and R7 and in urine from 3 healthy donors to ensure no cross-reactivity occurred with any other biomolecules that may be present in all urine samples. To do this we monitored the fluorescence response of probe H5 and R7 in urine with and without spiked granzyme B (15 nM) and also assessed stability via HPLC analysis. […] (FIG. 11). It should also be noted that HPLC-MS confirmed the cleavage of probe H5 and R7 after the aspartic acid residue (the natural granzyme B cleavage site).

[11] = system: mKate-E0771 cancer cells; assay type: cell-based, mouse
Method: FIG. 8. […] Cell viability was determined using a commercially available MTT kit (Invitrogen) with values normalized to untreated cells. Data presented as mean values±SEM (2 independent experiments with 3 replicates for each).

[12] = target: T2, human recombinant granzyme B; assay: HPLC/MS analysis of probe cleavage by granzyme B in urine; assay type: biochemical; conditions: after 1 h with granzyme B present
Method: as §1, with “Following” for “Probe (H5 or R7) (25 μM) was incubated with human recombinant granzyme B (15 nM) in Granzyme B buffer for 1.5 h at 37° C. Following”

[13] = system: E0771 cells alone or in co-culture with CD8+ T cells; assay: AZD5363 follow-up: cell death and H5 staining by flow cytometry; assay type: cell-based, mouse
Method: FIG. 10. […] Co-cultures were stained with probe H5 (5 μM) and AF647-Annexin V (10 nM). Excitation/emission wavelengths: 488 nm/525 nm (for probe H5), 633/670 nm (for AF647-Annexin V). c) Percentages of E0771 cells that were double-stained with probe H5 and AF647-Annexin V under the experimental conditions described in a). Data presented as mean values±SEM (n=3).

## CO[C@@]12[C@H](COC(N)=O)C3=C(C(=O)C(C)=C(N)C3=O)N1C[C@@H]1N[C@@H]12 [C18, Mitomycin C]
[1]
  H5 fluorescence signal compared to IL-2 only controls: Increased fluorescence signals

## C/C(=C\c1csc(C)n1)[C@@H]1C[C@@H]2O[C@]2(C)CCC[C@H](C)[C@H](O)[C@@H](C)C(=O)C(C)(C)[C@@H](O)CC(=O)O1 [C13, Epothilone B]
[1]
  H5 fluorescence signal compared to IL-2 only controls: Increased fluorescence signals

## Ac-IEPD-{AMC} [listing 1 of 2 here]
[2]
  not cleaved: <1% cleavage at 20 nM enzyme for 2 h
[3]
  cleaved bond: D-AMC

## IEPDRL
[2]
  cleaved bond: Asp-Arg

## IEPD-Dabcyl ({BODIPY(FL)}-IEPD-{Ethylenediamine-X1}; SMILES CC[C@H](C)[C@H](NC(=O)CCC1=[N+]2C(=Cc3c(C)cc(C)n3[B-]2(F)F)C=C1)C(=O)N[C@@H](CCC(=O)O)C(=O)N1CCC[C@H]1C(=O)N[C@@H](CC(=O)O)C(=O)NCCNC(=O)c1ccc(/N=N/c2ccc(N(C)C)cc2)cc1)
[2]
  not cleaved: <5% cleavage at 20 nM enzyme for 2 h

## Ac-IEPD-{AMC} [listing 2 of 2 here]
[4]; limit of detection of hGzmB
  LoD: 25 nM
[5]
  cleavage at 20 nM enzyme for 2 h: < 1%
  cleavage at 100 nM for 24 h: 10%
[6]
  Km: 160 µM
  kcat: 0.5 s⁻¹

## Ac-IEPD-aldehyde
[4]; Ac-IEPD-CHO 50 μM pre-incubated 1 h with GzmB
  effect of inhibitor on fluorescence response of H5 to hGzmB: drastically reduced the fluorescence response of H5
[7]; granzyme B pre-incubated with inhibitor
  effect of inhibitor pre-incubation on fold change of R7: fold change decreased

## {BODIPY(FL)}-[Ile(3ξ)]EPDAL-{Ethylenediamine-X1} (SMILES CCC(C)[C@H](NC(=O)CCC1=[N+]2C(=Cc3c(C)cc(C)n3[B-]2(F)F)C=C1)C(=O)N[C@@H](CCC(=O)O)C(=O)N1CCC[C@H]1C(=O)N[C@@H](CC(=O)O)C(=O)N[C@@H](C)C(=O)N[C@@H](CC(C)C)C(=O)NCCNC(=O)c1ccc(/N=N/c2ccc(N(C)C)cc2)cc1) [H5]
[8]
  cleaved bond: aspartic acid-Ala
[2]
  cleaved bond: Asp-Ala
[9]
  not cleaved: less than 1% of both probes had been cleaved whilst in the urine sample alone

## CC(=O)O[C@@]12CO[C@@H]1C[C@H](O)[C@@]1(C)C(=O)[C@H](O)C3=C(C)[C@@H](OC(=O)[C@H](O)[C@@H](NC(=O)OC(C)(C)C)c4ccccc4)C[C@@](O)([C@@H](OC(=O)c4ccccc4)[C@H]21)C3(C)C [C11, Docetaxel]
[1]
  H5 fluorescence signal compared to IL-2 only controls: Increased fluorescence signals

## H5m (IEFDAL; also: FRET labels, positions not given here)
[5]
  HPLC conversion (20 nM hGzmB, 2 h): 70%

## CCC(C)[C@H](NC(=O)CCC1=[N+]2C(=Cc3c(C)cc(C)n3[B-]2(F)F)C=C1)C(=O)N[C@@H](CCC(=O)O)C(=O)N1CCC[C@H]1C(=O)N[C@@H](CC(=O)O)C(=O)N[C@@H](C)C(=O)N[C@@H](CC(C)C)C(=O)NCCNC(=O)c1ccc(/N=N/c2ccc(N(C)C)cc2)cc1 (stereo partly drawn) [H5] ({BODIPY(FL)}-[Ile(3ξ)]EPDAL-{Ethylenediamine-X1})
[10]
  probe cleaved in the urine sample alone (HPLC): less than 1%
[5]
  HPLC conversion (20 nM hGzmB, 2 h): 100%
[11]
  cytotoxicity (cell viability): not cytotoxic
[12]
  conversion to the cleaved probe in urine: up to 84%

## CC(=O)N[C@@H](CSC(=O)[C@]1([C@@H](O)C(C)C)NC(=O)[C@H](C)[C@@H]1O)C(=O)O [C30, Lactacystin]
[1]
  H5 fluorescence signal compared to IL-2 only controls: Increased fluorescence signals

## AZD5363 [C5]
[13]; AZD5363 on its own, E0771 cells
  cancer cell death and H5 staining: did not induce significant cancer cell death nor cause H5 staining
[13]; combination with 100 U mL^−1 IL-2, CD8+ T cell-E0771 co-cultures
  cancer cell death and H5 fluorescence emission: caused significant cancer cell death and H5 fluorescence emission
[1]
  H5 fluorescence signal compared to IL-2 only controls: Increased fluorescence signals
[1]; listed as AZD5363
  H5 fluorescence signal compared to IL-2 only controls: brightest H5 fluorescence staining

## IEPDWR
[2]
  cleaved bond: Asp-Trp

## IEPDSL
[2]
  cleaved bond: Asp-Ser

## CC[C@H](C)[C@H](NC(=O)CCC1=[N+]2C(=Cc3c(C)cc(C)n3[B-]2(F)F)C=C1)C(=O)N[C@@H](CCC(=O)O)C(=O)N1CCC[C@H]1C(=O)N[C@@H](CC(=O)O)C(=O)NCCNC(=O)c1ccc(/N=N/c2ccc(N(C)C)cc2)cc1 [T1] ({BODIPY(FL)}-IEPD-{Ethylenediamine-X1})
[5]
  cleavage at 20 nM enzyme for 2 h: < 5%
  cleavage at 100 nM for 24 h: 15%

## IEPDSG
[2]
  cleaved bond: Asp-Ser

## IEPDWL
[2]
  cleaved bond: Asp-Trp

## Ile-Glu-Pro-Asp-Ala-Leu [R7]
[8]
  cleaved bond: aspartic acid-Ala
[2]
  cleaved bond: aspartic acid-Ala
[9]
  not cleaved: less than 1% of both probes had been cleaved whilst in the urine sample alone

## CCC(C)[C@H](NC(=O)CCCCCN1/C(=C/C=C/C=C/C2=[N+](C)c3ccc(S(=O)(=O)[O-])cc3C2(C)C)C(C)(C)c2cc(S(=O)(=O)[O-])ccc21)C(=O)N[C@@H](CCC(=O)O)C(=O)N1CCC[C@H]1C(=O)N[C@@H](CC(=O)O)C(=O)N[C@@H](C)C(=O)N[C@@H](CC(C)C)C(=O)NCCOCCOCCOCCOCCNC(=O)C1CCN(S(=O)(=O)c2ccccc2-c2c3ccc(=[N+]4CCc5ccccc54)cc-3oc3cc(N4CCc5ccccc54)ccc23)CC1 (stereo partly drawn) [R7]
[10]
  probe cleaved in the urine sample alone (HPLC): less than 1%
[7]; within 2 hours
  conversion from intact to cleaved (HPLC-MS): 100%
[12]
  conversion to the cleaved probe in urine: ≤ 99%

## C#CC[C@H](c1nc2cc(Cl)ccc2c(=O)n1Nc1ccccc1)N(CCCN)C(=O)c1cccc(Cl)c1F [C12, ARQ621]
[1]
  H5 fluorescence signal compared to IL-2 only controls: Increased fluorescence signals

## IEPDAG
[2]
  cleaved bond: Asp-Ala

## IEFDAL
[2]
  cleaved bond: Asp-Ala
